From patent US20120001065A1, “EVALUATING RENAL FUNCTION” (Mayo Foundation for Medical Education and Rsearch, priority 2009, published 2012)
Values joined by “and” are separate entries in the source; they are usually repeats but may differ in a detail not shown here. Identical values can stand only once.

Key:
[1] = GFR and ERPF-Long Renal Clearance (iothalamate and PAH continuous infusion): iothalamate concentration and GFR; format: in vivo; design: CE GFR / MS GFR: unit not given here; settings: one human subject; for CE GFR: corrected GFR per collection period from CE-UV; for CE GFR / MS GFR / Urine iothalamate concentration, CE / Urine iothalamate concentration, MS: continuous infusion; for MS GFR: corrected GFR per collection period from LC-MS/MS; for Plasma iothalamate concentration, CE / Plasma iothalamate concentration, MS: timed plasma collections P1-P6, continuous intravenous infusion; for Plasma iothalamate concentration, CE / Urine iothalamate concentration, CE: CE-UV; for Plasma iothalamate concentration, MS / Urine iothalamate concentration, MS: LC-MS/MS; for Urine iothalamate concentration, CE / Urine iothalamate concentration, MS: timed urine collections U1-U5
Experimental: For example, GFR can be calculated according to Formula I.
where UIoth is the concentration of iothalamate in urine, V is the urine flow rate (volume per unit of time), and PIoth is the plasma concentration during the urine collection period.
For the simultaneous determination of GFR and ERPF, iothalamate (Conray®, Mallinckrodt Inc. St. Louis, Mo.) and PAH (Aminohippurate Sodium, Merck & Co. Inc. Whitehouse Station, N.J.) were administered intravenously to one human subject. Iothalamate and PAH were administered using previously described constant infusion protocol. […] Blood samples were collected in tubes containing heparin or EDTA. Blood samples were centrifuged at 650 g for 7 minutes to separate plasma. Plasma was collected and stored at 4° C. to 8° C. Urine samples were collected and stored at 4° C. to 8° C. Frozen plasma and urine samples were thawed and stored at 4° C. to 8° C. until analysis.
The timed plasma collections (100 μL of each) were processed independently by diluting 1:3 with water followed by the addition of internal standard, D3-iothalamate and D4-PAH (20 μL of 38 μg/mL stock). The urine samples were diluted 1:10 with water and followed by the addition of internal standard, D3-iothalamate. All urine and plasma samples were then subjected to acetonitrile and/or 70% acetone polypeptide precipitation (100 μL) followed by centrifugation for 5 minutes at 650 g to remove/pellet protein. […]

[2] = GFR and ERPF-Long Renal Clearance (iothalamate and PAH continuous infusion): PAH concentration and ERPF; format: in vivo; design: CE ERPF / MS ERPF: unit not given here; settings: one human subject
Experimental: ERPF can be calculated according to Formula II.
Blood samples were collected in tubes containing heparin or EDTA. Blood samples were centrifuged at 650 g for 7 minutes to separate plasma. Plasma was collected and stored at 4° C. to 8° C. Urine samples were collected and stored at 4° C. to 8° C. Frozen plasma and urine samples were thawed and stored at 4° C. to 8° C. until analysis.
The urine samples were diluted 1:10 with water and followed by the addition of internal standard, D3-iothalamate. All urine and plasma samples were then subjected to acetonitrile and/or 70% acetone polypeptide precipitation (100 μL) followed by centrifugation for 5 minutes at 650 g to remove/pellet protein. […]

CNC(=O)c1c(I)c(NC(C)=O)c(I)c(C(=O)O)c1I [Iothalamate, iothalamate]
CE GFR ([1]; collection period P1): 138 | CE GFR ([1]; collection period P2): 127 | CE GFR ([1]; collection period P3): 123 | CE GFR ([1]; collection period P4): 114 | CE GFR ([1]; collection period P5): 119 | MS GFR ([1]; collection period P1): 141 | MS GFR ([1]; collection period P2): 114 | MS GFR ([1]; collection period P3): 120 | MS GFR ([1]; collection period P4): 116 | MS GFR ([1]; collection period P5): 119 | Plasma iothalamate concentration, CE ([1]; plasma collection P1): 11.645 µg/mL | Plasma iothalamate concentration, CE ([1]; plasma collection P2): 9.479 µg/mL | Plasma iothalamate concentration, CE ([1]; plasma collection P3): 8.341 µg/mL | Plasma iothalamate concentration, CE ([1]; plasma collection P4): 7.334 µg/mL | Plasma iothalamate concentration, CE ([1]; plasma collection P5): 6.869 µg/mL | Plasma iothalamate concentration, CE ([1]; plasma collection P6): 6.912 µg/mL | Plasma iothalamate concentration, MS ([1]; plasma collection P1): 10.6 µg/mL | Plasma iothalamate concentration, MS ([1]; plasma collection P2): 9.09 µg/mL | Plasma iothalamate concentration, MS ([1]; plasma collection P3): 7.93 µg/mL | Plasma iothalamate concentration, MS ([1]; plasma collection P4): 8.21 µg/mL | Plasma iothalamate concentration, MS ([1]; plasma collection P5): 7.12 µg/mL | Plasma iothalamate concentration, MS ([1]; plasma collection P6): 6.43 µg/mL | Urine iothalamate concentration, CE ([1]; urine collection U1): 12.973 µg/mL | Urine iothalamate concentration, CE ([1]; urine collection U2): 9.189 µg/mL | Urine iothalamate concentration, CE ([1]; urine collection U3): 8.069 µg/mL | Urine iothalamate concentration, CE ([1]; urine collection U4): 7.716 µg/mL | Urine iothalamate concentration, CE ([1]; urine collection U5): 7.333 µg/mL | Urine iothalamate concentration, MS ([1]; urine collection U1): 12.4 µg/mL | Urine iothalamate concentration, MS ([1]; urine collection U2): 7.85 µg/mL | Urine iothalamate concentration, MS ([1]; urine collection U3): 8.09 µg/mL | Urine iothalamate concentration, MS ([1]; urine collection U4): 8.5 µg/mL | Urine iothalamate concentration, MS ([1]; urine collection U5): 7.21 µg/mL

Nc1ccc(C(=O)NCC(=O)O)cc1 [PAH, p-aminohippuric acid]
MS ERPF ([2]; ERPF per collection period from LC-MS/MS, continuous infusion): 586 and 514 and 532 and 602 and 566 | CE ERPF ([2]; ERPF per collection period, CE, continuous infusion): 574 and 534 and 523 and 615 and 543 | Plasma PAH concentration, CE ([2]; timed plasma collections P1-P6, CE, continuous intravenous infusion): 17.755 µg/mL and 17.120 µg/mL and 17.740 µg/mL and 18.320 µg/mL and 18.000 µg/mL and 17.635 µg/mL | Plasma PAH concentration, MS ([2]; timed plasma collections P1-P6, LC-MS/MS, continuous intravenous infusion): 18.3 µg/mL and 18 µg/mL and 18.7 µg/mL and 18.9 µg/mL and 19.4 µg/mL and 17.9 µg/mL | Urine PAH concentration, CE ([2]; timed urine collections U1-U5, CE, continuous infusion): 97.620 µg/mL
